IC50 data for 27 compounds are collected here from US10538521B2, “Pyrimidine derivative having antimalarial activity” (CARNA BIOSCIENCES, INC., priority 2016, dated 2020).

Assay [1] relates to K1 strain, a drug resistant strain of Plasmodium falciparum. As to the kind of experiment: In vitro antimalarial assay (p-LDH, Malstat), K1 strain. It counts as cell-based. Conditions: P. falciparum K1 (drug resistant), 72 h culture, p-LDH readout, read-out: Antimalarial activity (IC50 value), Strain K1. The method in brief:
(§1)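 IC50 derived from concentration-response of parasite lactate dehydrogenase signal (Malstat reagent, NBT/PES formazan at 655 nm) after freeze-thaw lysis. Infected erythrocytes (hematocrit 2%, parasitaemia 0.5 or 1%) exposed 72 h to 12.5–0.0001 μM final compound under 3% O2-4% CO2-93% N2, FCR3 and K1 alike.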

Assay [2] concerns FCR3 strain, a drug sensitive strain of Plasmodium falciparum. As to the kind of experiment: In vitro antimalarial assay (p-LDH, Malstat), FCR3 strain. The settings on record: P. falciparum FCR3 (drug sensitive), 72 h culture, p-LDH readout, read-out: Antimalarial activity (IC50 value), Strain FCR3. It counts as cell-based. The method in brief: as §1

As a reminder, the IC50 is the point on the concentration scale where inhibition reaches its midpoint. `Cc1cc(C)nc(Nc2nc(Nc3ccn4ccnc4c3)cc(N3CCC(C)(C)CC3)n2)c1` [Example 182, 6-(4,4-dimethylpiperidin-1-yl)-N2-(4,6-dimethylpyridin-2-yl)-N4-(imidazo[1,2-a]pyridine-7-yl)pyrimidine-2,4-diamine]: the IC50 in assay [1] and in assay [2] was 100 to 1000 nM in each case.

`Cc1cc(C)nc(Nc2nc(Nc3ccn4ccnc4c3)cc(N3CCC(C)CC3)n2)c1` [Example 183, N2-(4,6-dimethylpyridin-2-yl)-N4-(imidazo[1,2-a]pyridin-7-yl)-6-(4-methylpiperidin-1-yl) pyrimidine-2,4-diamine]: the half-inhibitory concentration (IC50) in assay [1] and in assay [2] was 100 to 1000 nM throughout.

Consider `Cc1cc(C)nc(Nc2nc(Nc3ccn4ccnc4c3)cc(N3CCCC(C)C3)n2)c1` (stereo not drawn) [Example 184, N2-(4,6-dimethylpyridin-2-yl)-N4-(imidazo[1,2-a]pyridin-7-yl)-6-(3-methylpiperidin-1-yl) pyrimidine-2,4-diamine], for which the IC50 in assay [1] and in assay [2] was 100 to 1000 nM in each case.

`Cc1cc(C)nc(Nc2nc(Nc3ccn4ccnc4c3)cc(N3CC[C@H](F)C3)n2)c1` [Example 185, (S)-N2-(4,6-dimethylpyridin-2-yl)-6-(3-fluoropyrrolidin-1-yl)-N4-(imidazo[1,2-a]pyridin-7-yl) pyrimidine-2,4-diamine]: the IC50 in assay [1] and in assay [2] was less than 100 nM in each case.

On to `Cc1cc(C)nc(Nc2nc(Nc3ccn4ccnc4c3)cc(N3CC[C@@H](F)C3)n2)c1` [Example 186, (R)-N2-(4,6-dimethylpyridin-2-yl)-6-(3-fluoropyrrolidin-1-yl)-N4-(imidazo[1,2-a]pyridin-7-yl) pyrimidine-2,4-diamine], for which the IC50 in assay [1] and in assay [2] was less than 100 nM in each case.

Take `CCCCc1cc(C)cc(Nc2nc(Nc3ccn4ccnc4c3)cc(N3CCCCC3)n2)n1` [Example 187, N2-(6-butyl-4-methylpyridin-2-yl)-N4-(imidazo[1,2-a]pyridin-7-yl)-6-(piperidin-1-yl) pyrimidine-2,4-diamine]: the IC50 in assay [1] and in assay [2] was 100 to 1000 nM throughout.

Turning to `Cc1cc(CC(C)C)nc(Nc2nc(Nc3ccn4ccnc4c3)cc(N3CCCCC3)n2)c1` [Example 188, N4-(imidazo[1,2-a]pyridin-7-yl)-N2-(6-isobutyl-4-methylpyridin-2-yl)-6-(piperidin-1-yl) pyrimidine-2,4-diamine], the IC50 in assay [1] and in assay [2] was less than 100 nM throughout.

As for `CCc1cc(C)cc(Nc2nc(Nc3ccn4ccnc4c3)cc(N3CCCCC3)n2)n1` [Example 189, N2-(6-ethyl-4-methylpyridin-2-yl)-N4-(imidazo[1,2-a]pyridin-7-yl)-6-(piperidin-1-yl)pyrimidine-2,4-diamine], the IC50 in assay [1] and in assay [2] was less than 100 nM each time.

For the compound `COc1cc(C)nc(Nc2nc(Nc3ccn4ccnc4c3)cc(N3CCCCC3)n2)c1` [Example 190, N4-(imidazo[1,2-a]pyridin-7-yl)-N2-(4-methoxy-6-methylpyridin-2-yl)-6-(piperidin-1-yl) pyrimidine-2,4-diamine], the IC50 in assay [1] and in assay [2] was less than 100 nM in each case.

With `COc1cc(CF)nc(Nc2nc(Nc3ccn4ccnc4c3)cc(N3CCCCC3)n2)c1` [Example 191, N2-(6-(fluoromethyl)-4-methoxypyridin-2-yl)-N4-(imidazo [1,2-a]pyridin-7-yl)-6-(piperidin-1-yl)pyrimidine-2,4-diamine], the IC50 in assay [1] and in assay [2] was 100 to 1000 nM each time.

For the compound `OCc1cccc(Nc2nc(Nc3ccn4ccnc4c3)cc(N3CCCCC3)n2)n1` [Example 192, (6-{[4-(imidazo[1,2-a]pyridin-7-ylamino)-6-(piperidin-1-yl)pyrimidin-2-yl]amino}pyridin-2-yl)methanol], the results for the IC50 in assay [1] and in assay [2] were 1000 to 10000 nM and 100 to 1000 nM, respectively.

Take `Cc1cc(C)nc(Nc2nc(Nc3ccn4ccnc4c3)cc(N3C[C@@H]4OCCO[C@@H]4C3)n2)c1` [Example 194, N2-(4,6-dimethylpyridin-2-yl)-N4-(imidazo[1,2-a]pyridin-7-yl)-6-[(4aR,7aS)-tetrahydro-2H-[1,4]dioxino[2,3-c]pyrrol-6(3H)-yl]pyrimidine-2,4-diamine]: the IC50 in assay [1] and in assay [2] was less than 100 nM in each case.

`Cc1cc(C)nc(Nc2nc(Nc3ccccc3)cc(Nc3ccn4ccnc4c3)n2)c1` [Example 195, N2-(4,6-dimethylpyridin-2-yl)-N4-(imidazo[1,2-a]pyridin-7-yl)-N6-phenylpyrimidine-2,4,6-triamine]: the IC50 in assay [1] and in assay [2] was 100 to 1000 nM each time.

For `Cc1cc(C)nc(Nc2nc(NCc3ccccc3)cc(Nc3ccn4ccnc4c3)n2)c1` [Example 196, N4-benzyl-N2-(4,6-dimethylpyridin-2-yl)-N6-(imidazo[1,2-a]pyridin-7-yl)pyrimidine-2,4,6-triamine], the IC50 in assay [1] and in assay [2] was less than 100 nM in each case.

In the case of `CCCCc1cc(OC)cc(Nc2nc(Nc3ccn4ccnc4c3)cc(N3CCCCC3)n2)n1` [Example 197, N2-(6-butyl-4-methoxypyridin-2-yl)-N4-(imidazo[1,2-a]pyridin-7-yl)-6-(piperidin-1-yl) pyrimidine-2,4-diamine], the IC50 in assay [1] and in assay [2] was 100 to 1000 nM in each case.

Take `Cc1cc(C)nc(Nc2nc(Nc3ccn4ccnc4c3)cc(NN3CCCCC3)n2)c1` [Example 198, N2-(4,6-dimethylpyridin-2-yl)-N4-(imidazo[1,2-a]pyridin-7-yl)-N6-(piperidin-1-yl)pyrimidine-2,4,6-triamine]: the figures for the IC50 in assay [1] and in assay [2] were 100 to 1000 nM and less than 100 nM, respectively.

Turning to `Cc1cc(C)nc(Nc2nc(Nc3ccn4ccnc4c3)cc(NN3CCOCC3)n2)c1` [Example 199, N2-(4,6-dimethylpyridin-2-yl)-N4-(imidazo[1,2-a]pyridin-7-yl)-N6-morpholinopyrimidine-2,4,6-triamine], the IC50 in assay [1] and in assay [2] was less than 100 nM throughout.

As for `Cc1cc(C)nc(Nc2nc(Nc3ccn4ccnc4c3)cc(Nn3cccc3)n2)c1` [Example 200, N2-(4,6-dimethylpyridin-2-yl)-N4-(imidazo[1,2-a]pyridin-7-yl)-N6-(1H-pyrrol-1-yl)pyrimidine-2,4,6-triamine], the IC50 in assay [1] and in assay [2] was 100 to 1000 nM throughout.

For `CCCCc1cc(CC)cc(Nc2nc(Nc3ccn4ccnc4c3)cc(N3CCCCC3)n2)n1` [Example 201, N2-(6-butyl-4-ethylpyridin-2-yl)-N4-(imidazo[1,2-a]pyridin-7-yl)-6-(piperidin-1-yl) pyrimidine-2,4-diamine], the IC50 in assay [1] and in assay [2] was 100 to 1000 nM each time.

In the case of `Cc1nc(Nc2nc(Nc3ccn4ccnc4c3)cc(N3CCCCC3)n2)ccc1F` [Example 202, N2-(5-fluoro-6-methylpyridin-2-yl)-N4-(imidazo[1,2-a]pyridin-7-yl)-6-(piperidin-1-yl) pyrimidine-2,4-diamine], the IC50 in assay [1] and in assay [2] was 100 to 1000 nM each time.

Take `Cc1nc(Nc2nc(Nc3ccn4ccnc4c3)cc(N3CCCCC3)n2)ccc1Cl` [Example 203, N2-(5-chloro-6-methylpyridin-2-yl)-N4-(imidazo[1,2-a]pyridin-7-yl)-6-(piperidin-1-yl) pyrimidine-2,4-diamine]: the IC50 in assay [1] and in assay [2] was 100 to 1000 nM in each case.

For the compound `Cc1cc(Nc2nc(Nc3ccn4ccnc4c3)cc(N3CCCCC3)n2)ncc1F` [Example 204, N2-(5-fluoro-4-methylpyridin-2-yl)-N4-(imidazo[1,2-a]pyridin-7-yl)-6-(piperidin-1-yl) pyrimidine-2,4-diamine], the IC50 in assay [1] and in assay [2] was 100 to 1000 nM in each case.

On to `Cc1cc(Cl)cc(Nc2nc(Nc3ccn4ccnc4c3)cc(N3CCCCC3)n2)n1` [Example 205, N2-(4-chloro-6-methylpyridin-2-yl)-N4-(imidazo[1,2-a]pyridin-7-yl)-6-(piperidin-1-yl) pyrimidine-2,4-diamine], for which the IC50 in assay [1] and in assay [2] was 100 to 1000 nM each time.

For `Cc1cc(C)nc(Nc2nc(Nc3ccn4ccnc4c3)cc(NN3CCCC3)n2)c1` [Example 206, N2-(4,6-dimethylpyridin-2-yl)-N4-(imidazo[1,2-a]pyridin-7-yl)-N6-(pyrrolidin-1-yl)pyrimidine-2,4,6-triamine], the IC50 in assay [1] and in assay [2] was less than 100 nM in each case.

Regarding `COc1ccnc(Nc2nc(Nc3ccn4ccnc4c3)cc(N3CCC4(CCCC4)C3)n2)c1` [Example 207, N4-(imidazo[1,2-a]pyridin-7-yl)-N2-(4-methoxypyridin-2-yl)-6-(2-azaspiro[4.4]nonan-2-yl) pyrimidine-2,4-diamine], the IC50 in assay [1] and in assay [2] was 100 to 1000 nM in each case.

Take `CCc1ccnc(Nc2nc(Nc3ccn4ccnc4c3)cc(N3CCC4(CCCC4)C3)n2)c1` [Example 208, N2-(4-ethylpyridin-2-yl)-N4-(imidazo[1,2-a]pyridin-7-yl)-6-(2-azaspiro[4.4]nonan-2-yl) pyrimidine-2,4-diamine]: the IC50 in assay [1] and in assay [2] was 100 to 1000 nM in each case.

In the case of `COc1ccnc(Nc2nc(Nc3ccn4ccnc4c3)cc(N3CCC(C)(C)C3)n2)c1` [Example 209, 6-(3,3-dimethylpyrrolidin-1-yl)-N4-(imidazo[1,2-a]pyridin-7-yl)-N2-(4-methoxypyridin-2-yl) pyrimidine-2,4-diamine], the IC50 in assay [1] and in assay [2] was 100 to 1000 nM in each case.
